Measured values taken from patent US11566007B2, “Ras inhibitors” (Revolution Medicines, Inc., priority 2019, dated 2023).
“And” between values parts separate entries of the source, which are not always exact repeats. Equal entries are not always repeated. Where two headings read alike, the source gives them in different places.

Tests used:
[1] = molecular target: KRAS G13D (Homo sapiens (Human), UniProt P01116+P62937, G13D); assay: Ras-Raf (BRAF RBD) disruption / FRET / MOA assay, KRAS G13D; assay type: biochemical; settings: read-out: IC50* KRAS G13D FRET data
Sequence of KRAS G13D (P01116-2 other isoform, or with tags, fused parts or gaps G13D): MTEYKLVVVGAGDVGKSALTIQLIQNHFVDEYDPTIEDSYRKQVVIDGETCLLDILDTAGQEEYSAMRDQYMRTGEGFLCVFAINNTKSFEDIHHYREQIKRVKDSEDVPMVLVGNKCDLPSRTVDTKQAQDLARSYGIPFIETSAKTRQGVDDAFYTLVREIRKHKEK
Sequence of KRAS G13D (P62937 whole entry): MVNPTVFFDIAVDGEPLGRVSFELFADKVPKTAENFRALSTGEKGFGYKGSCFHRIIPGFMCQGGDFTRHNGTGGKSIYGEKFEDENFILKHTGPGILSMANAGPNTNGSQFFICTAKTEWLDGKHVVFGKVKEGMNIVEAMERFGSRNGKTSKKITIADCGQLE
Summary of the method: (§1)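 Compounds, top final concentration 30 μM in 10-point 3-fold series, incubated 3 hours at 25° C with nucleotide-loaded Ras, cyclophilin A and BRAF RBD.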

[2] = tested on: NCI-H358 (K-Ras G12C); assay: CellTiter-Glo cell viability assay, NCI-H358; assay type: cell-based, human; settings: NCI-H358, 5-day treatment
Summary of the method: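 Cells seeded, compound added directly, 5-day exposure. Plates to RT ~30 min, CellTiter-Glo luminescence read. Normalized to DMSO avg (x100); 4-parameter logistic fit.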

[3] = molecular target: KRAS WT (Homo sapiens (Human), UniProt P01116+P62937); assay: Ras-Raf (BRAF RBD) disruption / FRET / MOA assay, KRAS WT; assay type: biochemical; settings: read-out: IC50* KRAS WT FRET data
Sequence of KRAS WT (P01116-2 other isoform, or with tags, fused parts or gaps): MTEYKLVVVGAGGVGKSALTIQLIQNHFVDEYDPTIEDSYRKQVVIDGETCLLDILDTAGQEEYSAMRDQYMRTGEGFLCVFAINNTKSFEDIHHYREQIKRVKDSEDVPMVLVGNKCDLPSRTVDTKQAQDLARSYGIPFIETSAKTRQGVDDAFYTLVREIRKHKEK
Sequence of KRAS WT (P62937 whole entry): as the sequence (P62937 whole entry) above
Summary of the method: as §1

[4] = tested on: NCI-H358 cells (K-Ras G12C); assay: Potency assay: pERK in NCI-H358 cells; assay type: cell-based, human; settings: Homo sapiens, NCI-H358; H358 KRAS G12C; read-out: pERK EC50
Summary of the method: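 pERK decrease read by AlphaLISA SureFire p-ERK1/2 or In-Cell Western after 4 h compound exposure at 37 °C, 5% CO2.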

[5] = molecular target: KRAS G12D (Homo sapiens (Human), UniProt P01116+P62937, G12D); assay: Ras-Raf (BRAF RBD) disruption / FRET / MOA assay, KRAS G12D; assay type: biochemical; settings: Ras-Raf disruption/FRET/MOA assay; class symbols; read-out: KRAS G12D FRET data IC50
Sequence of KRAS G12D (P01116-2 other isoform, or with tags, fused parts or gaps G12D): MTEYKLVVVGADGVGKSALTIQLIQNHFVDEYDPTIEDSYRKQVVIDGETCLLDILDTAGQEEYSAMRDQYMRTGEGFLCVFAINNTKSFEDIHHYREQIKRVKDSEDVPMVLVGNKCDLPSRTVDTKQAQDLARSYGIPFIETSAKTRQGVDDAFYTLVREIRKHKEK
Sequence of KRAS G12D (P62937 whole entry): as the sequence (P62937 whole entry) above
Summary of the method: as §1

[6] = molecular target: K-Ras G13C (Homo sapiens (Human), UniProt P01116+P62937, G13C); assay: Ras-Raf (BRAF RBD) disruption / FRET / MOA assay, KRAS G13C; assay type: biochemical
Sequence of K-Ras G13C (P01116-2 other isoform, or with tags, fused parts or gaps G13C): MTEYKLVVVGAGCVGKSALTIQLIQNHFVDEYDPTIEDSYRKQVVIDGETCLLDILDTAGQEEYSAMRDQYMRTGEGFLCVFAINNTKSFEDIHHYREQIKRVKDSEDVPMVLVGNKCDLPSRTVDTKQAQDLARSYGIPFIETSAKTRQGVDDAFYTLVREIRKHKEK
Sequence of K-Ras G13C (P62937 whole entry): as the sequence (P62937 whole entry) above
Summary of the method: as §1

[7] = molecular target: NRAS G12C (Homo sapiens (Human), UniProt P01111+P62937, G12C); assay: Ras-Raf (BRAF RBD) disruption / FRET / MOA assay, NRAS G12C; assay type: biochemical; settings: read-out: IC50* NRAS G12C FRET data
Sequence of NRAS G12C (P01111 whole entry G12C): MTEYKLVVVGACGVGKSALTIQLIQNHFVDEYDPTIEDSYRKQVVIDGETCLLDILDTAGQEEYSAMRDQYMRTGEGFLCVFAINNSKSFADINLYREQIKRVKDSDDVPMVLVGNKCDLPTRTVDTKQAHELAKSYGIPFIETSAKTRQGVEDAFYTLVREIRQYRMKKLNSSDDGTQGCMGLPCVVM
Sequence of NRAS G12C (P62937 whole entry): as the sequence (P62937 whole entry) above
Summary of the method: as §1

[8] = molecular target: KRAS G12S (Homo sapiens (Human), UniProt P01116+P62937, G12S); assay: Ras-Raf (BRAF RBD) disruption / FRET / MOA assay, KRAS G12S; assay type: biochemical; settings: Ras-Raf disruption/FRET/MOA assay; class symbols; read-out: KRAS G12S FRET data IC50
Sequence of KRAS G12S (P01116-2 other isoform, or with tags, fused parts or gaps G12S): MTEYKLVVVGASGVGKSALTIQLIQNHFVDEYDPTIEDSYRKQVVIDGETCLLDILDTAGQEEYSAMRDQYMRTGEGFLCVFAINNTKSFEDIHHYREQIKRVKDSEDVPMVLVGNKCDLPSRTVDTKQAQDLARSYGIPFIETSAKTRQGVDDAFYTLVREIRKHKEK
Sequence of KRAS G12S (P62937 whole entry): as the sequence (P62937 whole entry) above
Summary of the method: as §1

[9] = molecular target: KRAS G12V (Homo sapiens (Human), UniProt P01116+P62937, G12V); assay: Ras-Raf (BRAF RBD) disruption / FRET / MOA assay, KRAS G12V; assay type: biochemical; settings: read-out: IC50* KRAS G12V FRET data
Sequence of KRAS G12V (P01116-2 other isoform, or with tags, fused parts or gaps G12V): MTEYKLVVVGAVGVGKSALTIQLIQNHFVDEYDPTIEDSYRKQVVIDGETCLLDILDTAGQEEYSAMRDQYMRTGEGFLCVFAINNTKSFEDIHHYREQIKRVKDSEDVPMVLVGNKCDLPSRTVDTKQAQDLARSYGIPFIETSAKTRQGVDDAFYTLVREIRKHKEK
Sequence of KRAS G12V (P62937 whole entry): as the sequence (P62937 whole entry) above
Summary of the method: as §1

[10] = molecular target: K-Ras G12C (Homo sapiens (Human), UniProt P01116+P62937, G12C); assay: Ras-Raf (BRAF RBD) disruption / FRET / MOA assay, KRAS G12C; assay type: biochemical
Sequence of K-Ras G12C (P01116-2 other isoform, or with tags, fused parts or gaps G12C): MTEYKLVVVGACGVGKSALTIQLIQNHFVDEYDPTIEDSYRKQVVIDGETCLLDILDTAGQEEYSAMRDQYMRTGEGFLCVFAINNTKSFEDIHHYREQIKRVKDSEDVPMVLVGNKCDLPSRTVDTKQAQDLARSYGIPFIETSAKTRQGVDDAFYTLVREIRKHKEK
Sequence of K-Ras G12C (P62937 whole entry): as the sequence (P62937 whole entry) above
Summary of the method: as §1

[11] = Homo sapiens, NCI-H358, 120 h, class symbols, read-out: Additional H358 Cell Viability assay data (K-Ras G12C, IC50)
[12] = KRAS G13C, Ras-Raf disruption/FRET/MOA assay, read-out: IC50* KRAS G13C FRET data
[13] = KRAS G12C, Ras-Raf disruption/FRET/MOA assay, read-out: IC50* KRAS G12C FRET data
[14] = class symbols, read-out: Additional H358 Cell Viability assay data (K-Ras G12C, IC50)

SMILES	IC50 [1]	IC50 [2, 11] [nM]	IC50 [3]	EC50 [4] [nM]	IC50 [5]	IC50 [6, 12]	IC50 [7]	IC50 [8]	IC50 [9]	IC50 [10, 13]	IC50 [2, 14] [nM]	IC50 ([2]; Homo sapiens, NCI-H358, 120 h, read-out: H358 Cell Viability (K-Ras G12C) IC50) [nM]	IC50 ([6]; with Cyclophilin A, BRAF RBD, read-out: FRET (K-Ras G13C) IC50) [nM]	IC50 ([10]; with Cyclophilin A, BRAF RBD, read-out: FRET (K-Ras G12C) IC50) [nM]
C=CS(=O)(=O)N1CC[C@H](C(=O)N(C)[C@H](C(=O)N[C@H]2Cc3cc(O)cc(c3)-c3ccc4c(c3)c(c(-c3cccnc3[C@H](C)OC)n4CC)CC(C)(C)COC(=O)[C@@H]3CCCN(N3)C2=O)C(C)C)C1 (atropisomer, axis not shown) [Example A132]	100 to 1000 nM and 1000 to 10000 nM	10 to 100	1000 to 10000 nM and 10 to 100 nM	< 5000	1000 to 10000 nM and > 10000 nM	10 to 100 nM and < 10 nM	10 to 100 nM and < 10 nM	100 to 1000 nM and 1000 to 10000 nM	1000 to 10000 nM and 10 to 100 nM	10 to 100 nM and < 10 nM				
CCn1c(-c2cccnc2COC)c2c3cc(ccc31)-c1cc(O)cc(c1)C[C@H](NC(=O)[C@H](C(C)C)N(C)C(=O)[C@H]1CCN(C(=O)C#CCOC)C1)C(=O)N1CCC[C@H](N1)C(=O)OCC(C)(C)C2 (atropisomer, axis not shown) [Example A135]	1000 to 10000 nM and > 10000 nM	10 to 100	1000 to 10000 nM and > 10000 nM	< 5000	1000 to 10000 nM and > 10000 nM	10 to 100 nM and 100 to 1000 nM	10 to 100 nM and < 10 nM	100 to 1000 nM and 1000 to 10000 nM	100 to 1000 nM and 1000 to 10000 nM	10 to 100 nM and < 10 nM				
CCn1c(-c2cccnc2COC)c2c3cc(ccc31)-c1cccc(c1)C[C@H](NC(=O)[C@H](C(C)C)N(C)C(=O)[C@H]1CCN(C(=O)C#CCN(C)C)C1)C(=O)N1CCC[C@H](N1)C(=O)OCC(C)(C)C2 (atropisomer, axis not shown) [Example A138]	1000 to 10000 nM	< 10	1000 to 10000 nM	< 5000	1000 to 10000 nM	100 to 1000 nM	10 to 100 nM	> 10000 nM	1000 to 10000 nM	10 to 100 nM				
CCn1c(-c2cncnc2C(C)C)c2c3cc(ccc31)-c1cc(O)cc(c1)C[C@H](NC(=O)[C@H](C(C)C)N(C)C(=O)[C@H]1CCN(C(=O)C#CCN(C)C)C1)C(=O)N1CCC[C@H](N1)C(=O)OCC(C)(C)C2 (atropisomer, axis not shown) [Example A155]	1000 to 10000 nM and 10 to 100 nM	10 to 100	1000 to 10000 nM and 10 to 100 nM	< 5000	1000 to 10000 nM and 100 to 1000 nM	10 to 100 nM and < 10 nM	10 to 100 nM and < 10 nM	1000 to 10000 nM and 10 to 100 nM	100 to 1000 nM and 10 to 100 nM	10 to 100 nM	< 10			
CCn1c(-c2ccccc2CN(C)C)c2c3cc(ccc31)-c1cc(O)cc(c1)C[C@H](NC(=O)[C@H](C(C)C)N(C)C(=O)c1ncc(NC(=O)/C=C/CN(C)C)s1)C(=O)N1CCC[C@H](N1)C(=O)OCC(C)(C)C2 (atropisomer, axis not shown) [Example A163]	1000 to 10000 nM	> 1000	1000 to 10000 nM	< 5000	1000 to 10000 nM	10 to 100 nM	1000 to 10000 nM	> 10000 nM	> 10000 nM	1000 to 10000 nM				
CC#CC(=O)N1CC[C@H](C(=O)N(C)[C@H](C(=O)N[C@H]2Cc3cccc(c3)-c3ccc4c(c3)c(c(-c3cccnc3[C@H](C)OC)n4CC)CC(C)(C)COC(=O)[C@@H]3CCCN(N3)C2=O)C(C)C)C1 (atropisomer, axis not shown) [Example A173]	> 10000 nM	10 to 100	> 10000 nM	< 5000	> 10000 nM	> 10000 nM	100 to 1000 nM	1000 to 10000 nM	1000 to 10000 nM	100 to 1000 nM				
CCn1c(-c2cncnc2[C@H](C)OC)c2c3cc(ccc31)-c1cc(O)cc(c1)C[C@H](NC(=O)[C@H](C(C)C)N(C)C(=O)[C@H]1CCN(C(=O)C#CCN3CCOCC3)C1)C(=O)N1CCC[C@H](N1)C(=O)OCC(C)(C)C2 (atropisomer, axis not shown) [Example A182]	100 to 1000 nM and 1000 to 10000 nM	10 to 100	100 to 1000 nM and 1000 to 10000 nM	< 5000	1000 to 10000 nM and > 10000 nM	10 to 100 nM and 1000 to 10000 nM	10 to 100 nM and < 10 nM	100 to 1000 nM and 1000 to 10000 nM	100 to 1000 nM and 1000 to 10000 nM	10 to 100 nM and < 10 nM	< 10			
CCn1c(-c2cccnc2[C@H](C)OC)c2c3cc(ccc31)-c1csc(n1)C[C@H](NC(=O)[C@H](C(C)C)N(C)C(=O)[C@H]1CCN(C(=O)C#CCN3CCOCC3)C1)C(=O)N1CCC[C@H](N1)C(=O)OCC(C)(C)C2 (atropisomer, axis not shown) [Example A186]	> 10000 nM		> 10000 nM	< 5000	> 10000 nM	> 10000 nM and 1000 to 10000 nM	10 to 100 nM and 1000 to 10000 nM	1000 to 10000 nM and > 10000 nM	1000 to 10000 nM and > 10000 nM	10 to 100 nM and 1000 to 10000 nM		5	940	38
CO[C@@H](C)c1ncccc1-c1c2c3cc(ccc3n1C)-c1cccc(c1)C[C@H](NC(=O)[C@H](C(C)C)N(C)C(=O)[C@H]1CCN(C(=O)C#CCN3CCOCC3)C1)C(=O)N1CCC[C@H](N1)C(=O)OCC(C)(C)C2 (atropisomer, axis not shown) [Example A192]	> 10000 nM	100 to 1000	> 10000 nM	< 5000	> 10000 nM	> 10000 nM	100 to 1000 nM and 1000 to 10000 nM	> 10000 nM	> 10000 nM	100 to 1000 nM and 1000 to 10000 nM				
C=CC(=O)N1CC[C@H](C(=O)N(C)[C@H](C(=O)N[C@H]2Cc3cc(O)cc(c3)-c3ccc4c(c3)c(c(-c3cnccc3[C@H](CC)OC)n4CC)CC(C)(C)COC(=O)[C@@H]3CCCN(N3)C2=O)C(C)C)C1 (atropisomer, axis not shown) [Example A194]	100 to 1000 nM and 1000 to 10000 nM	10 to 100	1000 to 10000 nM and 10 to 100 nM	< 5000	1000 to 10000 nM and 100 to 1000 nM	10 to 100 nM and 1000 to 10000 nM	100 to 1000 nM and < 10 nM	100 to 1000 nM and 10 to 100 nM	100 to 1000 nM and 10 to 100 nM	100 to 1000 nM and < 10 nM	< 10			
CCn1c(-c2cccnc2[C@H](C)OC)c2c3cc(ccc31)-c1nsc(n1)C[C@H](NC(=O)[C@H](C(C)C)N(C)C(=O)[C@H]1CCN(C(=O)C#CCN3CCOCC3)C1)C(=O)N1CCC[C@H](N1)C(=O)OCC(C)(C)C2 (atropisomer, axis not shown) [Example A201]	> 10000 nM	10 to 100	> 10000 nM	< 5000	> 10000 nM	1000 to 10000 nM	100 to 1000 nM	> 10000 nM	> 10000 nM	10 to 100 nM				
C=CC(=O)N1CC[C@H](C(=O)N(C)[C@H](C(=O)NN2Cc3cc(O)cc(c3)-c3ccc4c(c3)c(c(-c3cccnc3[C@H](C)OC)n4CC)CC(C)(C)COC(=O)[C@@H]3CCCN(N3)C2=O)C(C)C)C1 (atropisomer, axis not shown) [Example A233]	100 to 1000 nM	10 to 100	10 to 100 nM	< 5000	100 to 1000 nM	10 to 100 nM	10 to 100 nM	10 to 100 nM	10 to 100 nM	10 to 100 nM				
CCn1c(-c2cccnc2[C@H](C)OC)c2c3cc(ccc31)-c1cc(O)cc(c1)C[C@H](NC(=O)[C@H](C(C)C)N(C)C(=O)[C@H]1CCN(C(=O)C#CCN3[C@@H](C)COC[C@@H]3C)C1)C(=O)N1CCC[C@H](N1)C(=O)OCC(C)(C)C2 (atropisomer, axis not shown) [Example A244]	100 to 1000 nM	< 10	100 to 1000 nM	< 5000	1000 to 10000 nM	10 to 100 nM	< 10 nM	100 to 1000 nM	100 to 1000 nM	< 10 nM				
CCn1c(-c2cccnc2[C@H](C)OC)c2c3cc(ccc31)-c1cc(O)cc(c1)C[C@H](NC(=O)[C@H](C(C)C)N(C)C(=O)[C@H]1CCN(C(=O)C#CCN3[C@H](C)COC[C@@H]3C)C1)C(=O)N1CCC[C@H](N1)C(=O)OCC(C)(C)C2 (atropisomer, axis not shown) [Example A245]	100 to 1000 nM	< 10	100 to 1000 nM	< 5000	1000 to 10000 nM	10 to 100 nM	< 10 nM	100 to 1000 nM	10 to 100 nM	< 10 nM				
